The source made the active and inactive calls. The rule behind the calls is not given here.
Columns and labels:
MGC-803 [1] = test: Antiproliferative activity against human MGC803 cells incubated for 48 hrs and measured after 4 hrs by MTT assay; format: functional, cell-based
SGC-7901 [2] = test: Antiproliferative activity against human SGC7901 cells incubated for 48 hrs and measured after 4 hrs by MTT assay; format: functional, cell-based
A549 [3] = test: Antiproliferative activity against human A549 cells incubated for 48 hrs and measured after 4 hrs by MTT assay; format: functional, cell-based
MCF7 [4] = test: Antiproliferative activity against human MCF7 cells incubated for 48 hrs and measured after 4 hrs by MTT assay; format: functional, cell-based
PC-3 [5] = test: Antiproliferative activity against human PC3 cells incubated for 48 hrs and measured after 4 hrs by MTT assay; format: functional, cell-based
[6] = Cytotoxicity against human IOSE-144 cells incubated for 48 hrs and measured after 4 hrs by MTT assay; format: cell-based
MGC-803 [7] = test: Potency index, ratio of IC50 for AD-2 to IC50 for test compound for antiproliferative activity against human MGC803 incubated for 48 hrs and measured after 4 hrs by MTT assay; format: functional
SGC-7901 [8] = test: Potency index, ratio of IC50 for AD-2 to IC50 for test compound for antiproliferative activity against human SGC7901 incubated for 48 hrs and measured after 4 hrs by MTT assay; format: functional
A549 [9] = test: Potency index, ratio of IC50 for AD-2 to IC50 for test compound for antiproliferative activity against human A549 incubated for 48 hrs and measured after 4 hrs by MTT assay; format: functional
MCF7 [10] = test: Potency index, ratio of IC50 for AD-2 to IC50 for test compound for antiproliferative activity against human MCF7 incubated for 48 hrs and measured after 4 hrs by MTT assay; format: functional
PC-3 [11] = test: Potency index, ratio of IC50 for AD-2 to IC50 for test compound for antiproliferative activity against human PC3 incubated for 48 hrs and measured after 4 hrs by MTT assay; format: functional
A549 [12] = test: Induction of apoptosis in human A549 cells assessed as appearance of fragmented apoptotic bodies at 10 to 20 uM measured after 12 hrs by DAPI staining based fluorescence microscopic analysis; format: functional, cell-based
A549 [13] = test: Induction of apoptosis in human A549 cells assessed as nuclear condensation at 10 to 20 uM measured after 12 hrs by DAPI staining based fluorescence microscopic analysis; format: functional, cell-based
A549 [14] = test: Induction of apoptosis in human A549 cells assessed as nuclear shrinkage at 10 to 20 uM measured after 12 hrs by DAPI staining based fluorescence microscopic analysis; format: functional, cell-based

Row | Compound | IC50 (MGC-803 [1]) | IC50 (SGC-7901 [2]) | IC50 (A549 [3]) | IC50 (MCF7 [4]) | IC50 (PC-3 [5]) | IC50 [6] | Ratio IC50 (MGC-803 [7]) | Ratio IC50 (SGC-7901 [8]) | Ratio IC50 (A549 [9]) | Ratio IC50 (MCF7 [10]) | Ratio IC50 (PC-3 [11]) | Activity (A549 [12]) | Activity (A549 [13]) | Activity (A549 [14])
1 | CC(C)(O)CCC[C@@](C)(O)[C@H]1CC[C@]2(C)[C@@H]1[C@H](O)C[C@@H]1[C@@]3(C)CC[C@H](NC(=O)C4CCN(C(=O)OC(C)(C)C)CC4)C(C)(C)[C@@H]3CC[C@]12C | 11.4 µM | 18.8 µM | 11.7 µM | 89.5 µM | 17.9 µM | > 100 µM | – | – | – | – | – | – | – | –
2 | CC(C)(O)CCC[C@@](C)(O)[C@H]1CC[C@]2(C)[C@@H]1[C@H](O)C[C@@H]1[C@@]3(C)CC[C@H](NC(=O)C4CCCNC4)C(C)(C)[C@@H]3CC[C@]12C (stereo partly specified) | 20.6 µM | 29.9 µM | 11.6 µM | 18.5 µM | 30.8 µM | > 100 µM | – | – | – | – | – | – | – | –
3 | CC(C)(O)CCC[C@@](C)(O)[C@H]1CC[C@]2(C)[C@@H]1[C@H](O)C[C@@H]1[C@@]3(C)C/C(=C\c4cccc(Br)c4)[C@H](O)C(C)(C)[C@@H]3CC[C@]12C | 18.8 µM | > 100 µM | > 100 µM | > 100 µM | > 100 µM | > 100 µM | – | – | – | – | – | – | – | –
4 | CC(C)(O)CCC[C@@](C)(O)[C@H]1CC[C@]2(C)[C@@H]1[C@H](O)C[C@@H]1[C@@]3(C)C/C(=C\c4cccc([N+](=O)[O-])c4)C(=O)C(C)(C)[C@@H]3CC[C@]12C | 11.3 µM | 17.6 µM | 16.7 µM | 12.7 µM | 14.1 µM | > 100 µM | – | – | – | – | – | – | – | –
5 | CC(C)(O)CCC[C@@](C)(O)[C@H]1CC[C@]2(C)[C@@H]1[C@H](O)C[C@@H]1[C@@]3(C)C/C(=C\c4ccc(Br)cc4)[C@H](O)C(C)(C)[C@@H]3CC[C@]12C | 26.1 µM | > 100 µM | 38.6 µM | > 100 µM | 16.5 µM | > 100 µM | – | – | – | – | – | – | – | –
6 | CC(C)(O)CCC[C@@](C)(O)[C@H]1CC[C@]2(C)[C@@H]1[C@H](O)C[C@@H]1[C@@]3(C)C/C(=C\c4ccc([N+](=O)[O-])cc4)[C@H](O)C(C)(C)[C@@H]3CC[C@]12C | 23.2 µM | 47.2 µM | 34.2 µM | 49.4 µM | 58.1 µM | > 100 µM | – | – | – | – | – | – | – | –
7 | CC(C)(O)CCC[C@@](C)(O)[C@H]1CC[C@]2(C)[C@@H]1[C@H](O)C[C@@H]1[C@@]3(C)C/C(=C\c4cccc(F)c4)[C@H](O)C(C)(C)[C@@H]3CC[C@]12C | 56.1 µM | > 100 µM | > 100 µM | > 100 µM | > 100 µM | > 100 µM | – | – | – | – | – | – | – | –
8 | CC(C)(O)CCC[C@@](C)(O)[C@H]1CC[C@]2(C)[C@@H]1[C@H](O)C[C@@H]1[C@@]3(C)C/C(=C\c4ccc(C(F)(F)F)cc4)[C@H](O)C(C)(C)[C@@H]3CC[C@]12C | > 100 µM | > 100 µM | 45.6 µM | > 100 µM | > 100 µM | > 100 µM | – | – | – | – | – | – | – | –
9 | CC(C)(O)CCC[C@@](C)(O)[C@H]1CC[C@]2(C)[C@@H]1[C@H](O)C[C@@H]1[C@@]3(C)CC[C@H](OC(=O)C4CCN(C(=O)OC(C)(C)C)CC4)C(C)(C)[C@@H]3CC[C@]12C | 22.2 µM | 18.2 µM | 10.8 µM | 11 µM | 25.8 µM | > 100 µM | – | – | – | – | – | – | – | –
10 | CC(C)(O)CCC[C@@](C)(O)[C@H]1CC[C@]2(C)[C@@H]1[C@H](O)C[C@@H]1[C@@]3(C)C/C(=C\c4cccc([N+](=O)[O-])c4)[C@H](O)C(C)(C)[C@@H]3CC[C@]12C | > 100 µM | > 100 µM | 44.9 µM | > 100 µM | 75.2 µM | > 100 µM | – | – | – | – | – | – | – | –
11 | CC(C)(O)CCC[C@@](C)(O)[C@H]1CC[C@]2(C)[C@@H]1[C@H](O)C[C@@H]1[C@@]3(C)C/C(=C\c4ccc(F)cc4F)C(=O)C(C)(C)[C@@H]3CC[C@]12C | 9.32 µM | 11.2 µM | 12.6 µM | 8.32 µM | 13.1 µM | > 100 µM | 3 - 8 | 3 - 8 | 3 - 8 | 3 - 8 | 3 - 8 | – | – | –
12 | CC(C)(O)CCC[C@@](C)(O)[C@H]1CC[C@]2(C)[C@@H]1[C@H](O)C[C@@H]1[C@@]3(C)CC[C@H](O)C(C)(C)[C@@H]3CC[C@]12C | 69.8 µM | 34 µM | 22.7 µM | 28.5 µM | 45.7 µM | > 100 µM | – | – | – | – | – | inactive | inactive | inactive
13 | CC(C)(O)CCC[C@@](C)(O)[C@H]1CC[C@]2(C)[C@@H]1[C@H](O)C[C@@H]1[C@@]3(C)CC[C@H](OC(=O)C4CCCNC4)C(C)(C)[C@@H]3CC[C@]12C (stereo partly specified) | 12.5 µM | 12.1 µM | 5.44 µM | 14 µM | 13.1 µM | > 100 µM | – | – | – | – | – | – | – | –

Further lines, with some results ahead:

Row | IC50 (MGC-803 [1]) | IC50 (SGC-7901 [2]) | IC50 (A549 [3]) | IC50 (MCF7 [4]) | IC50 (PC-3 [5]) | Compound | IC50 [6] | Ratio IC50 (MGC-803 [7]) | Ratio IC50 (SGC-7901 [8]) | Ratio IC50 (A549 [9]) | Ratio IC50 (MCF7 [10]) | Ratio IC50 (PC-3 [11]) | Activity (A549 [12]) | Activity (A549 [13]) | Activity (A549 [14])
14 | 22.2 µM | 22.3 µM | 22.2 µM | 26.7 µM | 23.6 µM | CC(C)(O)CCC[C@@](C)(O)[C@H]1CC[C@]2(C)[C@@H]1[C@H](O)C[C@@H]1[C@@]3(C)CC[C@H](OC(=O)C4CCCN(C(=O)OC(C)(C)C)C4)C(C)(C)[C@@H]3CC[C@]12C (stereo partly specified) | > 100 µM | – | – | – | – | – | – | – | –
15 | 13.3 µM | 31.8 µM | 55.6 µM | 14.8 µM | 49.5 µM | CC(C)(O)CCC[C@@](C)(O)[C@H]1CC[C@]2(C)[C@@H]1[C@H](O)C[C@@H]1[C@@]3(C)C/C(=C\c4cccc(F)c4)C(=O)C(C)(C)[C@@H]3CC[C@]12C | > 100 µM | – | – | – | – | – | – | – | –
16 | 13.8 µM | 53.1 µM | 7.68 µM | 13.3 µM | 34 µM | CC(C)(O)CCC[C@@](C)(O)[C@H]1CC[C@]2(C)[C@@H]1[C@H](O)C[C@@H]1[C@@]3(C)CC[C@H](N)C(C)(C)[C@@H]3CC[C@]12C | > 100 µM | – | – | – | – | – | – | – | –
17 | 13.8 µM | 21.4 µM | 23.1 µM | 8.45 µM | 16.6 µM | CC(C)(O)CCC[C@@](C)(O)[C@H]1CC[C@]2(C)[C@@H]1[C@H](O)C[C@@H]1[C@@]3(C)C/C(=C\c4ccc(Br)cc4)C(=O)C(C)(C)[C@@H]3CC[C@]12C | > 100 µM | – | – | – | – | – | – | – | –
18 | 12.6 µM | 30.4 µM | 21.4 µM | 13.2 µM | 24.4 µM | CC(C)(O)CCC[C@@](C)(O)[C@H]1CC[C@]2(C)[C@@H]1[C@H](O)C[C@@H]1[C@@]3(C)C/C(=C\c4ccc(F)cc4F)[C@H](O)C(C)(C)[C@@H]3CC[C@]12C | > 100 µM | – | – | – | – | – | – | – | –
19 | 22.2 µM | 28.2 µM | 19.7 µM | 22.2 µM | 30.8 µM | CC(C)(O)CCC[C@@](C)(O)[C@H]1CC[C@]2(C)[C@@H]1[C@H](O)C[C@@H]1[C@@]3(C)C/C(=C\c4ccc([N+](=O)[O-])cc4)C(=O)C(C)(C)[C@@H]3CC[C@]12C | > 100 µM | – | – | – | – | – | – | – | –
20 | 25.5 µM | 32.4 µM | 20.3 µM | 25.2 µM | 34.1 µM | CC(C)(O)CCC[C@@](C)(O)[C@H]1CC[C@]2(C)[C@@H]1[C@H](O)C[C@@H]1[C@@]3(C)CC[C@H](NC(=O)C4CCNCC4)C(C)(C)[C@@H]3CC[C@]12C | > 100 µM | – | – | – | – | – | – | – | –
21 | 13.6 µM | 20.6 µM | 34.7 µM | 12.2 µM | 14.1 µM | CC(C)(O)CCC[C@@](C)(O)[C@H]1CC[C@]2(C)[C@@H]1[C@H](O)C[C@@H]1[C@@]3(C)C/C(=C\c4cccc(Br)c4)C(=O)C(C)(C)[C@@H]3CC[C@]12C | > 100 µM | – | – | – | – | – | – | – | –
22 | 26.2 µM | 29.1 µM | 48.4 µM | 15.5 µM | 36.8 µM | CC(C)(O)CCC[C@@](C)(O)[C@H]1CC[C@]2(C)[C@@H]1[C@H](O)C[C@@H]1[C@@]3(C)C/C(=C\c4ccc(C(F)(F)F)cc4)C(=O)C(C)(C)[C@@H]3CC[C@]12C | > 100 µM | – | – | – | – | – | – | – | –
23 | 16.8 µM | 18.1 µM | 23.5 µM | 21.2 µM | 23.1 µM | CC(C)(O)CCC[C@@](C)(O)[C@H]1CC[C@]2(C)[C@@H]1[C@H](O)C[C@@H]1[C@@]3(C)CC[C@H](NC(=O)C4CCCN(C(=O)OC(C)(C)C)C4)C(C)(C)[C@@H]3CC[C@]12C (stereo partly specified) | > 100 µM | – | – | – | – | – | – | – | –

Source: ChEMBL document CHEMBL4376871, “Synthesis and anti-cancer activity studies of dammarane-type triterpenoid derivatives” (Eur J Med Chem, 2020)
